Assay results as given in US20230133657A1, “THE USE OF MENTHOL FOR THE PREPARATION OF A TOPICAL COMPOSITION TO IMPROVE NEURODEGENERATIVE DISEASE AND STROKE” (CHINA MEDICAL UNIVERSITY, priority 2020, published 2023).

What was measured:
[1] = test system: ischemic stroke mice (MCAO); test: Measurement of the cerebral infarction volume (TTC staining); type: in vivo, mouse
Source text: Laboratory mice are divided into four groups: “Control” consisting of mice processed through MCAO for the ischemic stroke; “Water” consisting of mice which are processed for the ischemic stroke through MCAO and whose limbs are soaked in water; “MCAO+8% ME” consisting of mice which are processed for the ischemic stroke through MCAO and whose limbs are soaked in 8% menthol; “MCAO+16% ME” consisting of mice which are processed for the ischemic stroke through MCAO and whose limbs are soaked in 16% menthol. In Embodiment 2, menthol is prepared with 95% ethanol. Referring to the experiment schedule in FIG. 2A, mice are sacrificed on Day 7 for following analyses. Mice are processed for the ischemic stroke through MCAO on Day 0 and administrated with menthol once per day from Day 0 to Day 6. On the day of processing mice through MCAO, the limbs of a mouse resting 20 minutes after the operation are soaked in menthol for one minute; a mouse's limbs are soaked in menthol for 15 seconds only from Day 2 to Day 6; comparatively, a Water mouse's limbs are soaked in water. The sensorimotor nerve function test is conducted for mice one day before MCAO processing (i.e., pre-MCAO) and 1, 3 and 6 days after MCAO processing; the cerebral infarction volume is measured for checking any improvement in the stroke due to menthol on Day 7 after MCAO processing. After a mouse in each group is sacrificed through perfusion one week after MCAO processing, a specimen of the mouse's living brain is stained by TTC (FIG. 2D-2) for measurement of the cerebral infarction volume (mm^3) (FIG. 2D-1). The test results for the cerebral infarction volume are analyzed with the one-way ANOVA for further reviews through the multiple comparison analysis (Tukey's method) and statistics of between-group variances (*p<0.05). […] Laboratory mice are divided into five groups: “Water” consisting of mice which are processed for the ischemic stroke through MCAO and whose limbs are soaked in water; “8% ME” consisting of mice which are processed for the ischemic stroke through MCAO and whose limbs are soaked in 8% menthol; “16% ME” consisting of mice which are processed for the ischemic stroke through MCAO and whose limbs are soaked in 16% menthol; “Back-ME” consisting of mice which are processed for the ischemic stroke through MCAO and whose backs are soaked in menthol; “Oral-ME” consisting of mice which are processed for the ischemic stroke through MCAO and fed with menthol. […] As shown in FIGS. 4B-1 and 4B-2, the test results are analyzed with the one-way ANOVA for further reviews through the multiple comparison analysis (Duncan's method) and statistics of between-group variances (*p<0.05; *: comparison with the “Water” group; comparison with the “16% ME” group; comparison with the “8% ME” group). […]

[2] = test system: Parkinson's disease mice (MPTP); test: Immunohistochemical (IHC) staining of TH in substantia nigra; type: in vivo, mouse; details: forepaws soaked in 8% menthol
Source text: Laboratory mice are divided into three groups: “Control” consisting of normal mice; “MPTP” consisting of Parkinson's disease mice fed with MPTP for creation of a disease model; “MPTP+8% ME” consisting of Parkinson's disease mice which are fed with MPTP for creation of a disease model and whose forepaws are soaked in 8% menthol. For administration of menthol, two forepaws of each “MPTP+8% ME” mouse are soaked in 8% (wt %) menthol solution for 10 seconds per day from Day 1 to Day 5 and from Day 8 to Day 10, respectively. For creation of a Parkinson's disease mouse model, MPTP (daily dosage: 10 mg/kg) is injected into “MPTP” and “MPTP+8% ME” mice through the intraperitoneal (I.P.) injection on three consecutive days from Day 3 to Day 5. By Day 10, the endurance exercise test, the dopamine assay and the immunohistochemical staining are conducted for any improvement in the symptom of Parkinson's disease due to menthol. The level of TH in a mouse's substantia nigra is tested through IHC staining (FIG. 1D). […] A mouse's nerve cells containing TH for generation of dopamine could be damaged due to Parkinson's disease.

[3] = test system: ischemic stroke mice (MCAO); test: Adhesive removal test, ischemic stroke mouse model; type: in vivo
Source text: Laboratory mice are divided into four groups: “Control” consisting of mice processed through MCAO for the ischemic stroke; “Water” consisting of mice which are processed for the ischemic stroke through MCAO and whose limbs are soaked in water; “MCAO+8% ME” consisting of mice which are processed for the ischemic stroke through MCAO and whose limbs are soaked in 8% menthol; “MCAO+16% ME” consisting of mice which are processed for the ischemic stroke through MCAO and whose limbs are soaked in 16% menthol. In Embodiment 2, menthol is prepared with 95% ethanol. Referring to the experiment schedule in FIG. 2A, mice are sacrificed on Day 7 for following analyses. Mice are processed for the ischemic stroke through MCAO on Day 0 and administrated with menthol once per day from Day 0 to Day 6. On the day of processing mice through MCAO, the limbs of a mouse resting 20 minutes after the operation are soaked in menthol for one minute; a mouse's limbs are soaked in menthol for 15 seconds only from Day 2 to Day 6; comparatively, a Water mouse's limbs are soaked in water. The sensorimotor nerve function test is conducted for mice one day before MCAO processing (i.e., pre-MCAO) and 1, 3 and 6 days after MCAO processing; the cerebral infarction volume is measured for checking any improvement in the stroke due to menthol on Day 7 after MCAO processing. The adhesive removal test is conducted on Day 1, 3 and 6 and the test results are compared with status at “pre-MCAO”. As shown in the experimental process, the time of a mouse finding and removing 4 (mm)×4 (mm) stickers, which have been adhered to its forepaws outside a test cage, is recorded (FIG. 2C-1, FIG. 2C-2) for statistic analysis as described in Section 2.1 (*p<0.05; **p<0.01; ***p<0.001). […] As shown in FIGS. 4B-1 and 4B-2, the test results are analyzed with the one-way ANOVA for further reviews through the multiple comparison analysis (Duncan's method) and statistics of between-group variances (*p<0.05; *: comparison with the “Water” group; comparison with the “16% ME” group; comparison with the “8% ME” group). […]

[4] = test system: Parkinson's disease mice (MPTP); test: Rotarod test (endurance exercise test), Parkinson's disease mouse model; type: in vivo; details: forepaws soaked in 8% (wt %) menthol solution 10 seconds per day
Source text: Laboratory mice are divided into three groups: “Control” consisting of normal mice; “MPTP” consisting of Parkinson's disease mice fed with MPTP for creation of a disease model; “MPTP+8% ME” consisting of Parkinson's disease mice which are fed with MPTP for creation of a disease model and whose forepaws are soaked in 8% menthol. For administration of menthol, two forepaws of each “MPTP+8% ME” mouse are soaked in 8% (wt %) menthol solution for 10 seconds per day from Day 1 to Day 5 and from Day 8 to Day 10, respectively. For creation of a Parkinson's disease mouse model, MPTP (daily dosage: 10 mg/kg) is injected into “MPTP” and “MPTP+8% ME” mice through the intraperitoneal (I.P.) injection on three consecutive days from Day 3 to Day 5. By Day 10, the endurance exercise test, the dopamine assay and the immunohistochemical staining are conducted for any improvement in the symptom of Parkinson's disease due to menthol. The rotarod test is a performance test in which a rodent keeps running on a self-accelerated rotating rod activated from 4 rpm (initial rotation rate) to 40 rpm (maximum and constant rotation rate in five minutes) on Day 1 (Day 10) for estimation of the retention time of the rodent on the rotating rod (FIG. 1B). As shown in the ordinate of FIG. 1B, “A latency to fall” denotes the difference between the retention time on Day 10 and the retention time on Day 1.

[5] = test system: ischemic stroke mice (MCAO); test: Rotarod test, ischemic stroke mouse model; type: in vivo
Source text: Laboratory mice are divided into four groups: “Control” consisting of mice processed through MCAO for the ischemic stroke; “Water” consisting of mice which are processed for the ischemic stroke through MCAO and whose limbs are soaked in water; “MCAO+8% ME” consisting of mice which are processed for the ischemic stroke through MCAO and whose limbs are soaked in 8% menthol; “MCAO+16% ME” consisting of mice which are processed for the ischemic stroke through MCAO and whose limbs are soaked in 16% menthol. In Embodiment 2, menthol is prepared with 95% ethanol. Referring to the experiment schedule in FIG. 2A, mice are sacrificed on Day 7 for following analyses. Mice are processed for the ischemic stroke through MCAO on Day 0 and administrated with menthol once per day from Day 0 to Day 6. On the day of processing mice through MCAO, the limbs of a mouse resting 20 minutes after the operation are soaked in menthol for one minute; a mouse's limbs are soaked in menthol for 15 seconds only from Day 2 to Day 6; comparatively, a Water mouse's limbs are soaked in water. The sensorimotor nerve function test is conducted for mice one day before MCAO processing (i.e., pre-MCAO) and 1, 3 and 6 days after MCAO processing; the cerebral infarction volume is measured for checking any improvement in the stroke due to menthol on Day 7 after MCAO processing. In the rotarod test, a mouse is placed on a self-accelerated rotating rod (rotation rate from 4 to 40 rpm) on Day 3 and Day 6 for measuring the retention time (FIG. 2B-1 and FIG. 2B-2) and comparing test results with those of “pre-MCAO”. Mice in each group are tested three times. The test results are analyzed with the one-way ANOVA for further reviews through the multiple comparison analysis (Dunnett's method) and statistics of between-group variances (*p<0.05). The asterisk (*) means a significant difference between “Control” and “Water” or “MCAO+8% ME” (*p<0.05; **p<0.01). […] As shown in FIGS. 4B-1 and 4B-2, the test results are analyzed with the one-way ANOVA for further reviews through the multiple comparison analysis (Duncan's method) and statistics of between-group variances (*p<0.05; *: comparison with the “Water” group; comparison with the “16% ME” group; comparison with the “8% ME” group). […]

[6] = MCAO mice fed with oral menthol (Oral-ME)
[7] = MCAO mice, limbs soaked in menthol (8% ME, 16% ME), topical vs oral comparison

## CC1CCC(C(C)C)C(O)C1 (stereo not shown) [menthol]
[1]; [6]
  cerebral infarction volume: unchanged
[1]; MCAO mice, backs administered with menthol (Back-ME)
  cerebral infarction volume: unchanged
[1]; MCAO mice, limbs soaked in 8% or 16% menthol, Day 7, TTC staining, vs Control and Water groups
  cerebral infarction volume: significantly decreases
[1]; [7]
  cerebral infarction volume: significantly subdued
[2]
  level of TH in substantia nigra: recovered and similar to that of Control mice
[3]; limbs soaked in 8% or 16% menthol, Day 1, 3 and 6
  time spent in removing stickers: significantly shorter than time spent by Control or Water mice
[3]; limbs soaked in 8% or 16% menthol, Day 6, vs Water mice
  time spent in finding stickers: significantly less time
[3]; limbs soaked in menthol (8% ME, 16% ME), vs Water, Back-ME, Oral-ME
  time spent in finding and removing stickers: significantly shorter than other mice
[4]
  retention time on a rotating rod (latency to fall, Day 10 vs Day 1): longer than the retention time on Day 1
[5]; [6]
  retention time on a rotating rod: not extended effectively
[5]; MCAO mice, backs administered with topical menthol (Back-ME)
  retention time on a rotating rod: not extended effectively
[5]; MCAO mice, limbs soaked in 8% or 16% menthol once per day Day 0 to Day 6, Day 3 and Day 6
  retention time on a rotating rod: longer than the retention time performed by MCAO or Water mice
[5]; [7]
  retention time on a rotating rod: longer than the retention time performed by Back-ME, Water or Oral-ME mice
